Measurements reported in ChEMBL document CHEMBL1909046, “DrugMatrix in vitro pharmacology data”.

How the values were obtained:
[1] = biological target: T1, Alpha-1A adrenergic receptor (Rattus norvegicus, UniProt P43140); assay: DRUGMATRIX: Alpha-1A adrenergic receptor radioligand binding (ligand: prazosin); format: cell membranes, Wistar, Submaxillary gland, Membrane; conditions: Not Active = under 50% inhibition at 10 µM
T1 sequence (P43140 whole entry): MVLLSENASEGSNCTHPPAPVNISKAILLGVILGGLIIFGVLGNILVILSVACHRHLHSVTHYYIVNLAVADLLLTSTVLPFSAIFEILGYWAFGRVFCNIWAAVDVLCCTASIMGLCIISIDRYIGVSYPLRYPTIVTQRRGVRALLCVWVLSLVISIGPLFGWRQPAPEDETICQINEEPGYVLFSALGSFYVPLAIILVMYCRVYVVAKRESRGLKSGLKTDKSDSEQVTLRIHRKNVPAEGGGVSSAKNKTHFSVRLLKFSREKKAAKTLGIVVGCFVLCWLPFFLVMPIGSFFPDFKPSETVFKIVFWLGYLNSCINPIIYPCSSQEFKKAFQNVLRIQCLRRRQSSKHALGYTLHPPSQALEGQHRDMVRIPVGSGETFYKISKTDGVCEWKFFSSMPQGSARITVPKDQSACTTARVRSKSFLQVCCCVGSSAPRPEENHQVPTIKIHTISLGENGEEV

[2] = DRUGMATRIX: Sigma2 radioligand binding (ligand: [3H] Ifenprodil); format: cell membranes, Rattus norvegicus, Wistar, Brain, Membrane; conditions: Not Active = under 50% inhibition at 10 µM
[3] = DRUGMATRIX: Tumor Necrosis Factor (TNF), Non-Selective radioligand binding (ligand: [125I] TNF-alpha); format: cell membranes, Membrane; conditions: u-937; Not Active = under 50% inhibition at 10 µM
[4] = biological target: D(1A) dopamine receptor (Homo sapiens, UniProt P21728); assay: DRUGMATRIX: Dopamine D1 radioligand binding (ligand: [3H] SCH-23390); format: cell membranes, Membrane; conditions: cho; Not Active = under 50% inhibition at 10 µM
[5] = biological target: Delta-type opioid receptor (Homo sapiens, UniProt P41143); format: cell membranes, HEK293, Membrane; conditions: hek293; note: in other assays of this panel Not Active means under 50% inhibition at 10 µM
[6] = biological target: cGMP-specific 3',5'-cyclic phosphodiesterase (Homo sapiens, UniProt O76074); assay: DRUGMATRIX: Phosphodiesterase PDE5 enzyme inhibition (substrate: [3H]cGMP + cGMP); format: tissue-based; conditions: platelet; Not Active = under 50% inhibition at 10 µM
[7] = biological target: T2, 5-hydroxytryptamine receptor 1A (Rattus norvegicus, UniProt P19327); format: cell membranes, Membrane; conditions: cho-k1; note: in other assays of this panel Not Active means under 50% inhibition at 10 µM
T2 sequence (P19327 whole entry): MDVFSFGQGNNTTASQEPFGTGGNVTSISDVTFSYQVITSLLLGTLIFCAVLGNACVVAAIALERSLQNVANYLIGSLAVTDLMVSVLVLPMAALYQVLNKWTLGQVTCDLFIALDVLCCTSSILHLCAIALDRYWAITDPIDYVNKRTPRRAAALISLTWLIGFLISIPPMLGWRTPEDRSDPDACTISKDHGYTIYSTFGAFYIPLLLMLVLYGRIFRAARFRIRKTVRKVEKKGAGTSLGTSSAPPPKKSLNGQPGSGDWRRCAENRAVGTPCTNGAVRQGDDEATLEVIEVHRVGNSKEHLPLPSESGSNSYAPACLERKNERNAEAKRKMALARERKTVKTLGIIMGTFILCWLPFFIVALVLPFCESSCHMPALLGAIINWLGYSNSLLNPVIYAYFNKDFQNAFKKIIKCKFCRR

[8] = biological target: T3, Cytochrome P450 1A2 (Homo sapiens, UniProt P05177); conditions: bti-tn-5b1-4; note: in other assays of this panel Not Active means under 50% inhibition at 10 µM
T3 sequence (P05177 whole entry): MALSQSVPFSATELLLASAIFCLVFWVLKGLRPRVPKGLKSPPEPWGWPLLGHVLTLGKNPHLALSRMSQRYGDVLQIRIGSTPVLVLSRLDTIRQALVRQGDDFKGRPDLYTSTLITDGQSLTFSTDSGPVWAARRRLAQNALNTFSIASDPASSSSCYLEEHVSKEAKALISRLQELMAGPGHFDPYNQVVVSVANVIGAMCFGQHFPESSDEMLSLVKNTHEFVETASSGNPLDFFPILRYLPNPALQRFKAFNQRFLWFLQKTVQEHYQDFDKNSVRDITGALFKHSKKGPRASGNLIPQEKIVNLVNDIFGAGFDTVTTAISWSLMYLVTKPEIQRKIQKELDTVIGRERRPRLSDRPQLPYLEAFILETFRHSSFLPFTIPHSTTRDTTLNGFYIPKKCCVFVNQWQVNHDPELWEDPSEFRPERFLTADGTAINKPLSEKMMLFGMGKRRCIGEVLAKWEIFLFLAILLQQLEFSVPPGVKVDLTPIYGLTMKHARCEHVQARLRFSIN

D(1A) dopamine receptor, sequence (P21728 whole entry): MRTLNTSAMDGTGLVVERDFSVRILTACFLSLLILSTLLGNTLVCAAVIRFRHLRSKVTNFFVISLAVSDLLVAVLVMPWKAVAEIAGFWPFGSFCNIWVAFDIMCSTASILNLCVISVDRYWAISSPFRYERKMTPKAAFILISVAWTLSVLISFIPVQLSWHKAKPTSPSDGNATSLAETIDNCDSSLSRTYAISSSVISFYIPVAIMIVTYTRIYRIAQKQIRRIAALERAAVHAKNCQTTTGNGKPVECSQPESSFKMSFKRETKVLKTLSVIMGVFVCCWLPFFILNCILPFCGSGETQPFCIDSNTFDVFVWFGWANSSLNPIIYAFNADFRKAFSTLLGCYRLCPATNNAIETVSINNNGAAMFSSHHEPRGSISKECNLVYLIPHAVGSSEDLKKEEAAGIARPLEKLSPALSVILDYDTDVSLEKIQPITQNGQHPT
Delta-type opioid receptor, sequence (P41143 whole entry): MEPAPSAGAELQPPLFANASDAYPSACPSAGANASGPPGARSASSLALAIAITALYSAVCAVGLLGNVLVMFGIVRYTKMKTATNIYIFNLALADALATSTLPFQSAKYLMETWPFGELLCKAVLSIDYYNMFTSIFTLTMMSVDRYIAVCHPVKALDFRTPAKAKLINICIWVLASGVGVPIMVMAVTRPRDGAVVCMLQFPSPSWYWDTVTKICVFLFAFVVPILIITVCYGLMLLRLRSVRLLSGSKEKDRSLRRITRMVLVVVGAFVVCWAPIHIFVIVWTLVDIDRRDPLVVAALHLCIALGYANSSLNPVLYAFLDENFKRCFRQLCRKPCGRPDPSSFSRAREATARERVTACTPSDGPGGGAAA

CN(C)/N=N/c1[nH]cnc1C(N)=O [DACARBAZINE]
Not Active: IC50 [1] | IC50 [2] | Ki [2] | IC50 [3] | Ki [3] | IC50 [4] | IC50 [5] | IC50 [6] | IC50 [7] | IC50 [8] | Ki [8]

CC(=O)Nc1c(I)c(NC(C)=O)c(I)c(C(=O)O)c1I [DIATRIZOIC ACID]
Not Active: IC50 [1] | IC50 [2] | Ki [2] | IC50 [3] | Ki [3] | IC50 [4] | IC50 [5] | IC50 [6] | IC50 [7] | IC50 [8] | Ki [8]

COP(=O)(OC)OC=C(Cl)Cl [DICHLORVOS]
Not Active: IC50 [1] | IC50 [2] | Ki [2] | IC50 [3] | Ki [3] | IC50 [4] | IC50 [5] | IC50 [6] | IC50 [7] | IC50 [8] | Ki [8]

O=C(O)Cc1ccccc1Nc1c(Cl)cccc1Cl [DICLOFENAC]
Not Active: IC50 [1] | IC50 [2] | Ki [2] | IC50 [3] | Ki [3] | IC50 [4] | IC50 [5] | IC50 [6] | IC50 [7] | IC50 [8] | Ki [8]

C[C@H]1O[C@@H](O[C@H]2[C@@H](O)C[C@H](O[C@H]3[C@@H](O)C[C@H](O[C@H]4CC[C@@]5(C)[C@H](CC[C@@H]6[C@@H]5CC[C@]5(C)[C@@H](C7=CC(=O)OC7)CC[C@]65O)C4)O[C@@H]3C)O[C@@H]2C)C[C@H](O)[C@@H]1O [DIGITOXIN]
Not Active: IC50 [1] | IC50 [2] | Ki [2] | IC50 [3] | Ki [3] | IC50 [4] | IC50 [5] | IC50 [6] | IC50 [7] | IC50 [8] | Ki [8]

CCN1CC(CCN2CCOCC2)C(c2ccccc2)(c2ccccc2)C1=O (configuration not stated) [DOXAPRAM]
Not Active: IC50 [1] | IC50 [2] | Ki [2] | IC50 [3] | Ki [3] | IC50 [4] | IC50 [5] | IC50 [6] | IC50 [7] | IC50 [8] | Ki [8]

Cn1c(=O)c2c(ncn2CC2OCCO2)n(C)c1=O [DOXOFYLLINE]
Not Active: IC50 [1] | IC50 [2] | Ki [2] | IC50 [3] | Ki [3] | IC50 [4] | IC50 [5] | IC50 [6] | IC50 [7] | IC50 [8] | Ki [8]
